Reference: paper PMC6009938, “The use of dimethylsulfoxide as a solvent in enzyme inhibition studies: the case of aldose reductase” (Journal of Enzyme Inhibition and Medicinal Chemistry, 2017)

Experiments:
Type in all cases: biochemical
[1] = target: T1, human recombinant AR (hAR) (Homo sapiens, UniProt P15121); assay: Aldose reductase assay, L-idose reduction (NADPH oxidation at 340 nm); settings: for Inhibition model / Ki / Ki′: substrate L-idose
T1 construct: made in house
Description: (§1) One unit of enzyme activity is the amount that catalyses the conversion of 1 µmol of substrate/min in the above assay conditions. These assay conditions were also adopted to assess the effectiveness of inhibitors when L-idose, trans-4-hydroxy-2,3-nonenal (HNE), or 3-glutathionyl-4-hydroxynonenal (GSHNE) was used as a substrate instead of GAL.
(§2) The human recombinant AR (hAR) was expressed and purified as previously described. […] The purified enzyme was stored at −80 °C in a 10 mM sodium phosphate buffer pH 7.0 containing 2 mM DTT and 30% (w/v) glycerol. Before use, the enzyme was extensively dialysed against a 10 mM sodium phosphate buffer pH 7.0.

[2] = target: T1, human recombinant AR (hAR); assay: Aldose reductase assay, HNE reduction (NADPH oxidation at 340 nm); settings: for Inhibition model / Ki′: substrate HNE
Description: (§3) The AR activity was determined at 37 °C as previously described, following the decrease in absorbance at 340 nm due to NADPH oxidation (ε 340 = 6.22 mM^−1·cm^−1) through a Biochrom Libra S60 spectrophotometer (Biochrom, Cambridge, United Kingdom). The standard assay mixture contained a 0.25 M sodium phosphate buffer pH 6.8, 0.18 mM NADPH, 0.4 M ammonium sulphate, 0.5 mM EDTA and 4.7 mM GAL. One unit of enzyme activity is the amount that catalyses the conversion of 1 µmol of substrate/min in the above assay conditions. These assay conditions were also adopted to assess the effectiveness of inhibitors when L-idose, trans-4-hydroxy-2,3-nonenal (HNE), or 3-glutathionyl-4-hydroxynonenal (GSHNE) was used as a substrate instead of GAL.
as §2
The protein concentration was determined according to Bradford[35], using BSA as a standard protein. HNE was prepared as previously described. GSHNE was prepared as previously described[37] by incubation of GSH and HNE, monitoring the time course of GSH consumption. The residual GSH was determined as previously described.

[3] = target: T1, human recombinant AR (hAR); assay: Aldose reductase assay, GAL reduction
Description: as §1, §2

[4] = target: T1, human recombinant AR (hAR); assay: Aldose reductase assay, GSHNE reduction; settings: up to 100 mM in the assay mixture; different substrate concentrations
Description: as §3
The human recombinant AR (hAR) was expressed and purified as previously described. […] The specific activity of purified hAR was 5.3 U/mg. The purified enzyme was stored at −80 °C in a 10 mM sodium phosphate buffer pH 7.0 containing 2 mM DTT and 30% (w/v) glycerol. Before use, the enzyme was extensively dialysed against a 10 mM sodium phosphate buffer pH 7.0.
The protein concentration was determined according to Bradford[35], using BSA as a standard protein. HNE was prepared as previously described. […] The residual GSH was determined as previously described.

[5] = DMSO 40 mM, apparent, ESI complex
[6] = DMSO 100 mM, apparent, ESI complex
[7] = DMSO 200 mM, apparent, ESI complex
[8] = No DMSO, dissociation constant of ESI complex

Row | Compound | Inhibition model [1] | Ki′ [1, 5] [µM] | Ki′ [1, 6] [µM] | Ki′ [1, 7] [µM] | Ki′ [1, 8] [µM] | Inhibition model ([1]; listed as rutin) | Inhibition model [2] | Ki′ [2, 5] [µM] | Ki′ [2, 6] [µM] | Ki′ [2, 7] [µM] | Ki′ [2, 8] [µM] | Inhibition model ([2]; listed as rutin) | effect on the reduction of GAL catalysed by AR [3] | Ki ([1]; DMSO 40 mM, apparent) [µM] | Ki ([1]; DMSO 100 mM, apparent) [µM] | Ki ([1]; DMSO 200 mM, apparent) [µM] | Ki ([1]; No DMSO) [µM] | inhibition of AR activity ([1]; 0.7% (v/v) (approximately 0.17 M), L-idose 0.4–4 mM) | inhibition of AR activity ([2]; 0.7% (v/v) (approximately 0.17 M), HNE 40–110 µM) | effect on enzyme activity with GSHNE as substrate [4]
1 | CO [methanol] | – | – | – | – | – | – | – | – | – | – | – | – | – | – | – | – | – | less than 5% | less than 5% | –
2 | COc1ccc(CCC(=O)c2c(O)cc(O[C@@H]3O[C@H](CO)[C@@H](O)[C@H](O)[C@H]3O[C@@H]3O[C@@H](C)[C@H](O)[C@@H](O)[C@H]3O)cc2O)cc1O [NHDC, neohesperidin dihydrochalcone] | mixed inhibitors | 286 ± 53 | 230 ± 35 | 283 ± 2 | 292 ± 17 | – | uncompetitive inhibitors | 134 ± 11 | 150 ± 22 | 199 ± 6 | 122 ± 19 | – | – | 114 ± 15 | 125 ± 16 | 194 ± 17 | 93 ± 17 | – | – | –
3 | C[S+](C)[O-] [DMSO, dimethyl sulfoxide] | competitive inhibition | – | – | – | – | – | mixed type of inhibition | – | – | – | – | – | no effect | – | – | – | – | – | – | no effect of interference on the enzyme activity

Further lines, with some results ahead:

Row | Inhibition model [1] | Ki′ [1, 5] [µM] | Ki′ [1, 6] [µM] | Ki′ [1, 7] [µM] | Ki′ [1, 8] [µM] | Inhibition model ([1]; listed as rutin) | Inhibition model [2] | Ki′ [2, 5] [µM] | Ki′ [2, 6] [µM] | Ki′ [2, 7] [µM] | Ki′ [2, 8] [µM] | Inhibition model ([2]; listed as rutin) | effect on the reduction of GAL catalysed by AR [3] | Compound | Ki ([1]; DMSO 40 mM, apparent) [µM] | Ki ([1]; DMSO 100 mM, apparent) [µM] | Ki ([1]; DMSO 200 mM, apparent) [µM] | Ki ([1]; No DMSO) [µM] | inhibition of AR activity ([1]; 0.7% (v/v) (approximately 0.17 M), L-idose 0.4–4 mM) | inhibition of AR activity ([2]; 0.7% (v/v) (approximately 0.17 M), HNE 40–110 µM) | effect on enzyme activity with GSHNE as substrate [4]
4 | Mixed | 7.6 ± 1.2 | 11.7 ± 0.5 | 12.7 ± 2.0 | 9.3 ± 1.1 | mixed inhibitors | Uncompetitive | 10.5 ± 2.0 | 12.8 ± 1.9 | 16.5 ± 1.9 | 9.2 ± 0.9 | uncompetitive inhibitors | – | C[C@@H]1O[C@@H](OC[C@H]2O[C@@H](Oc3c(-c4ccc(O)c(O)c4)oc4cc(O)cc(O)c4c3=O)[C@H](O)[C@@H](O)[C@@H]2O)[C@H](O)[C@H](O)[C@H]1O [Rutin, rutin] | 20.3 ± 1.1 | 24.8 ± 3.8 | 45.6 ± 5.5 | 17.8 ± 3 | – | – | –
5 | Mixed | 62.9 ± 2.3 | 50.3 ± 4.8 | 60.9 ± 2.1 | 52.5 ± 3.8 | – | Mixed | 64.7 ± 1.4 | 73.4 ± 7.5 | 99.5 ± 7.3 | 56.5 ± 4.5 | – | – | O=C(CCc1ccc(O)cc1)c1c(O)cc(O)cc1O [Phloretin, phloretin] | – | – | – | – | – | – | –
